Laboratory results as given in the supplement of paper PMC10307832.

Key:
Assay in all cases: relative viability (nuclei count vs DMSO), 5 days (fraction); higher = more cells survive
[1] = compound: CN[C@@H]1C[C@H]2O[C@@](C)([C@@H]1OC)n1c3ccccc3c3c4c(c5c6ccccc6n2c5c31)C(=O)NC4 [Staurosporine] + N=C(N)NC(=N)NCCc1ccccc1 [Phenformin] (partner 250 µM)
Procedure, shortened: (§1)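 Each reported value is a median over duplicate plates. It expresses relative viability: treated-well nuclei count divided by vehicle-well nuclei count. Lung cancer cell lines in 1536-well plates were dosed by pin tool a day after seeding, alone with one drug or with a fixed anchor-drug dose plus five library-drug doses (not always all listed) in √10 steps, and nuclei were counted after 5 days.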

Sulindac + Olaparib = compound: CC1=C(CC(=O)O)c2cc(F)ccc2/C1=C\c1ccc([S+](C)[O-])cc1 [Sulindac] + O=C(c1cc(Cc2n[nH]c(=O)c3ccccc23)ccc1F)N1CCN(C(=O)C2CC2)CC1 [Olaparib] (partner 8 µM)
Procedure, shortened: as §1

[2] = compound: CN[C@@H]1C[C@H]2O[C@@](C)([C@@H]1OC)n1c3ccccc3c3c4c(c5c6ccccc6n2c5c31)C(=O)NC4 [Staurosporine] + C[C@]1(O)C[C@@H](c2nc(-c3ccc4ccc(-c5ccccc5)nc4c3)c3c(N)nccn32)C1 [Linsitinib] (partner 1 µM)
Procedure, shortened: as §1

Sulindac + Tozasertib = compound: CC1=C(CC(=O)O)c2cc(F)ccc2/C1=C\c1ccc([S+](C)[O-])cc1 [Sulindac] + Cc1cc(Nc2cc(N3CCN(C)CC3)nc(Sc3ccc(NC(=O)C4CC4)cc3)n2)n[nH]1 [Tozasertib] (partner 0.1 µM)
Procedure, shortened: as §1

Cell Line | relative viability ([1]; first compound 0.005 µM) | relative viability ([1]; first compound 0.01581 µM) | relative viability ([1]; first compound 0.05 µM) | relative viability ([1]; first compound 0.1581 µM) | relative viability ([1]; first compound 0.5 µM) | relative viability (Sulindac + Olaparib; first compound 0.08 µM) | relative viability (Sulindac + Olaparib; first compound 0.253 µM) | relative viability (Sulindac + Olaparib; first compound 0.8 µM) | relative viability (Sulindac + Olaparib; first compound 2.53 µM) | relative viability (Sulindac + Olaparib; first compound 8 µM) | relative viability ([2]; first compound 0.005 µM) | relative viability ([2]; first compound 0.01581 µM) | relative viability ([2]; first compound 0.05 µM) | relative viability ([2]; first compound 0.1581 µM) | relative viability ([2]; first compound 0.5 µM) | relative viability (Sulindac + Tozasertib; first compound 0.08 µM) | relative viability (Sulindac + Tozasertib; first compound 0.253 µM) | relative viability (Sulindac + Tozasertib; first compound 0.8 µM) | relative viability (Sulindac + Tozasertib; first compound 2.53 µM) | relative viability (Sulindac + Tozasertib; first compound 8 µM)
NCI-H1666 | 0.495 | 0.567 | 0.518 | 0.262 | 0.201 | 0.705 | 0.741 | 0.674 | 0.734 | 0.774 | 0.475 | 0.42 | 0.322 | 0.238 | 0.221 | 0.624 | 0.627 | 0.593 | 0.562 | 0.648
LOU-NH91 | 0.467 | 0.302 | 0.334 | 0.228 | 0.168 | 0.955 | 0.961 | 0.84 | 0.893 | 1.01 | 0.979 | 0.744 | 0.63 | 0.365 | 0.274 | 0.634 | 0.662 | 0.636 | 0.636 | 0.744
LXF-289 | 0.325 | 0.0737 | 0.172 | 0.0511 | 0.0502 | 1.24 | 1.18 | 0.873 | 1.18 | 1.19 | 0.846 |  | 0.203 | 0.1 | 0.0809 | 0.176 | 0.167 | 0.195 | 0.176 | 0.205
NCI-H1299 |  |  |  |  |  | 0.98 | 1.04 | 0.889 | 0.962 | 1.03 | 0.785 | 0.305 | 0.206 | 0.143 | 0.113 |  |  |  |  | 
HARA | 0.374 |  | 0.211 | 0.133 | 0.0495 | 0.737 | 0.935 | 1 | 0.731 | 0.955 | 0.762 | 0.192 | 0.155 | 0.0968 | 0.0872 | 0.0822 | 0.0844 | 0.121 | 0.0886 | 0.103
LU99A | 0.671 | 0.335 | 0.353 | 0.24 | 0.162 | 0.294 | 0.231 | 0.259 | 0.241 | 0.311 | 0.441 | 0.212 | 0.201 | 0.182 | 0.14 | 0.265 | 0.266 | 0.285 | 0.252 | 0.286
201T | 0.422 |  | 0.343 | 0.266 | 0.198 | 0.896 | 0.825 | 0.846 | 0.886 | 0.883 | 1.02 | 1 | 0.814 | 0.688 | 0.575 | 1.08 | 0.94 | 0.957 | 0.94 | 0.98
HCC-827 | 0.43 | 0.35 | 0.214 | 0.167 |  | 0.636 | 0.683 | 0.573 | 0.659 | 0.734 | 0.992 | 0.853 | 0.726 | 0.769 | 0.624 | 0.485 | 0.432 | 0.435 | 0.418 | 0.466
NCI-H1703 |  |  |  |  |  | 0.39 | 0.526 | 0.404 | 0.529 | 0.554 | 0.561 | 0.291 | 0.17 | 0.146 | 0.083 |  |  |  |  | 
NCI-H1975 | 0.208 | 0.135 | 0.136 | 0.103 | 0.0912 | 0.998 | 0.763 | 0.65 | 0.841 | 0.974 | 0.323 | 0.229 |  | 0.139 | 0.124 | 0.888 | 0.825 | 0.927 | 0.722 | 1.15
NCI-H2023 | 0.214 | 0.16 | 0.128 | 0.0907 | 0.0615 | 0.486 | 0.511 |  | 0.441 | 0.554 | 0.419 | 0.17 | 0.197 | 0.122 | 0.0751 | 0.558 | 0.365 | 0.322 | 0.3 | 0.41
ChaGo-K-1 | 0.461 | 0.233 | 0.351 | 0.158 | 0.123 | 0.485 | 0.359 | 0.414 | 0.379 | 0.449 |  |  |  |  |  | 0.228 | 0.197 | 0.24 | 0.217 | 0.241
COR-L 105 | 0.312 | 0.217 | 0.176 | 0.207 | 0.181 | 0.645 | 0.61 | 0.692 | 0.717 | 0.72 | 0.561 | 0.353 | 0.246 | 0.261 | 0.213 | 0.291 | 0.349 | 0.348 | 0.373 | 0.391
NCI-H2170 | 0.364 |  | 0.354 | 0.14 | 0.157 | 0.658 | 0.576 | 0.493 | 0.591 | 0.626 |  |  |  |  |  | 0.791 | 0.928 | 0.797 | 0.675 | 0.719
A549 | 0.127 | 0.025 | 0.0465 | 0.031 | 0.0233 | 0.468 | 0.303 |  | 0.331 | 0.352 | 0.366 | 0.227 | 0.0839 | 0.0873 | 0.0598 |  |  |  |  | 
NCI-H460 | 0.301 | 0.0818 | 0.071 | 0.0104 | 0.0069 | 0.579 | 0.417 | 0.432 | 0.342 | 0.635 | 0.406 | 0.169 | 0.0258 | 0.0051 | 0.0055 | 0.639 | 0.439 | 0.667 | 0.46 | 0.314
NCI-H1993 | 0.507 | 0.408 | 0.463 | 0.455 | 0.421 | 1.03 | 1.11 | 0.895 | 1.05 | 1.13 | 0.761 | 0.634 | 0.605 | 0.439 | 0.55 | 0.597 | 0.629 | 0.514 | 0.651 | 0.598
Calu-6 |  |  |  |  |  | 0.618 | 0.624 | 0.449 | 0.531 | 0.711 | 0.92 | 0.776 | 0.3 | 0.0858 | 0.0592 |  |  |  |  | 
SW 900 | 0.364 | 0.184 | 0.189 | 0.111 | 0.127 | 0.968 | 0.965 |  |  | 1.06 |  |  |  |  |  |  | 0.516 |  | 0.462 | 0.585
